Assays:
Anandamide transport = Anandamide transport (human) cellular functional assay (assay F); assay type: cell-based; conditions: human U-937 cells, 0.1 µM [3H]-Anandamide, 20 min (assay F)
Protocol: Anandamide transport is determined using human U-937 cells as receptor source. [3H]-Anandamide (0.1 Ci/mmol), final concentration 0.1 µM is used as substrate. AM-404 is used as reference compound. Reactions are carried out in KRH buffer (pH 7.4) at 37°C for 20 min. The reaction is terminated by rapid vacuum filtration onto glass fiber filters. Radioactivity trapped onto filters is determined and compared to control values in order to ascertain any interactions of test compound with anandamide uptake (Hiiliard C.J. The movement of N-arachidonylethanolamide (anandamide) across cellular membranes. Chem. Physics Lipids. 2008;108:123-134, with modifications).

[1] = test system: Arachidonoylethanolamide Transport (AEAT); assay: Cellular uptake of [3H]-AEA in U937 cells (assay C); assay type: cell-based; conditions: Homo sapiens, U-937; [3H]-AEA uptake, assay C (Tables 2 and 3)
[2] = Critical micelle concentration (CMC) measurement, dye micellization; assay type: physicochemical; conditions: fluorescein dye micellization in water, pH 6.9, room temperature
FAAH = target: T1, FAAH (Sus scrofa, UniProt Q9TUI8); assay: Fatty acid amide hydrolase (FAAH) inhibition, pig brain homogenate (assay D); assay type: biochemical; conditions: 1 µM; pig brain homogenate (assay D)
T1 construct: 165 µl of diluted pig brain homogenate; from tissue; host or cells: pig brain homogenate
T1 sequence (Q9TUI8 1-579): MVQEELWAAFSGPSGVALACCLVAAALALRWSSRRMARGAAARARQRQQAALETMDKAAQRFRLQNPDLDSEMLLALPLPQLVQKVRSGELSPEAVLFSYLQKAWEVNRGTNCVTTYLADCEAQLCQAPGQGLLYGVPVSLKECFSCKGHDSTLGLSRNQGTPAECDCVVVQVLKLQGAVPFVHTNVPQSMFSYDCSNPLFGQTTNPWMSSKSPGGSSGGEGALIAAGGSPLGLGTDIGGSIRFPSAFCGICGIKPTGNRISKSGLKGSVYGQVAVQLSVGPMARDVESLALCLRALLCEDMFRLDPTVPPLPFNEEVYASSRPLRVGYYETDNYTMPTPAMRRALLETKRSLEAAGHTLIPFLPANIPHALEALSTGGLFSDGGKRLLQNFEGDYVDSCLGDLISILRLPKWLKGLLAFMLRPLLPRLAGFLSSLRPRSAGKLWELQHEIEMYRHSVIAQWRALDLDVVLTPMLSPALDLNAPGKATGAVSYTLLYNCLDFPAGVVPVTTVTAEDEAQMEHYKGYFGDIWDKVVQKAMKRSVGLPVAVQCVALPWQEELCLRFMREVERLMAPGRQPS

IL-8 = assay: Induced chemokine IL-8 in HaCaT keratinocytes; assay type: cell-based, human; conditions: Figure 6, 5 µM, tolerogen 10 µg/ml, 6h
Protocol: (§1) • Figure 1: AEA re-uptake inhibition of 2E,4E-dieneamides 1 and 9 into human primary monocytes and U937 cells. […] Data are mean values ± SEM of 3 independent experiments in a sigmoidal dose-response curve. • Figure 2: Concentration-dependent effects of 4 and 5 on FAAH activity. […] The maximal inhibition (32%) of 5 was measured at 1 µM. Data are mean values ± SEM of 3 independent experiments. • Figure 3: Effects of low nM concentrations of N-alkylamide 7 on FAAH activity alone and in combination with the FAAH inhibitor URB597. […] Data are mean values ± SEM of 3 independent experiments. • Figure 4: 1 and 9 inhibit LPS-induced TNF-alpha release into culture medium (measured by ELISA). Human macrophages (10^6 cells) were stimulated with LPS (500 ng/ml) and treated with UCM707 and/or compounds 1 and 9 at 5 µM for 18 h. N = 3 ± SEM. • Figure 5: UCM707 (positive control) and compounds 1 and 9 diminish NO2^- production. Human macrophages (10^6 cells) were stimulated with LPS (500 ng/ml) and treated with UCM707 and/or compounds 1 and 9 at 5 µM for 18 h. Culture supernatants were assayed for nitrite levels, using the Griess reagent as a reflection of NO production. Results are the mean ± SEM of four independent experiments performed in duplicate • Figure 6: In CB receptor expressing human HaCaT keratinocytes (10^6 cells) UCM707 (control) 1 and 9 like the endocannabinoid anandamide (each 5 µM) inhibited tolerogen (10 µg/ml) induced chemokine IL-8 (6h stimulation and incubation). N = 3 ± SEM.

NO2^- production = assay: NO2- production in LPS-stimulated human macrophages (Griess reagent); assay type: cell-based; conditions: Figure 5; LPS 500 ng/ml; 5 µM for 18 h
Protocol: as §1

| Structure (SMILES) | AEAT inhibition at 1 µM (Anandamide transport) | EC50 [1] [nM] | CMC [2] [µM] | FAAH inhibition at 1 µM (FAAH) | tolerogen induced chemokine IL-8 (IL-8) | NO2^- production (NO2^- production) |
| --- | --- | --- | --- | --- | --- | --- |
| CCCCCCC/C=C/C=C/C(=O)NCCc1cccc(OC)c1 [Example 9, (2E,4E)-N-(3-methoxyphenethyl)dodeca-2,4-diene amide] | 34 % of control | 870 ± 120 | >5 | 14.63 ± 2.91 % of control | inhibited | diminish |
| CCCCCCC/C=C/C=C/C(=O)NCCO [Example 1, (2E,4E)-N-(2-hydroxyethyl)dodeca-2,4-diene amide] | 28 % of control | 1220 ± 240 | >10 | <10 % of control | inhibited | diminish |
